Results on one compound are retold here after US10940135B2, “Paclitaxel pharmaceutical composition and pharmaceutical preparation thereof, preparation process and use thereof” (Sinotherapeutics Inc., priority 2016, dated 2021).

A short description of data set [1]: Apparent solubility determination in pH 6.8 phosphate buffer. It is filed as physicochemical. As to the method:
Apparent solubility determination: an excessive amount of the pharmaceutical compositions was weighed and put into a container. Phosphate buffer solution with pH6.8 was added respectively. The volume of the phosphate buffer solution was about 2/3 of volume of the container. The container was then shaken in a shaking table at 37° C. for 3 h. The resulting solution was filtered with a 0.45 μm filter membrane, then the filtrate was collected, further diluted with an appropriate amount of methanol, mixed by vortex and analyzed by HPLC.
Wherein the HPLC analysis parameters are as follows: […]

Data set [2] in a line: Dissolution determination (USP II method, pH 6.8 buffer + 0.2% Tween 80). It is filed as physicochemical. The settings on record: pH 6.8 buffer + 0.2% Tween 80, 100 rpm, 37.5° C. The text has this:
Dissolution Determination:
Wherein pH6.8 represents the environment simulating the human intestinal tract (small intestine).
Analysis of dissolved sample: the solution obtained in the dissolution determination test was filtered with a 0.45 μm filter membrane, then the filtrate was collected, further diluted with an appropriate amount of methanol, mixed by vortex and analyzed by HPLC. The HPLC analysis method of the dissolved sample was the same as the HPLC analysis method mentioned above in the solubility determination.

For data set [3] the following is noted: cited from earlier work.
For data set [4] the following is noted: reported as 0.1˜<10 μg/ml; cited from earlier work.
For data set [5] the following is noted: cited from earlier work. The source holds these as a separate data set.

Converted amounts (≈) assume the structure as drawn.

Take `CC(=O)O[C@H]1C(=O)[C@@]2(C)[C@H]([C@H](OC(=O)c3ccccc3)[C@]3(O)C[C@H](OC(=O)[C@H](O)[C@@H](NC(=O)c4ccccc4)c4ccccc4)C(C)=C1C3(C)C)[C@]1(OC(C)=O)CO[C@@H]1C[C@@H]2O` [Bulk drug, 5β,20-epoxy-1,2α,4,7β,10β,13α-hexahydroxytaxane-11-ene-9-one-4,10-diacetate-2-benzoate-13[(2′R,3′S)—N-benzoyl-3-phenylisoserine ester]]: the “Ratio of solubility (composition/bulk drug)” value in data set [1] is given as 1. In addition, the solubility (as a rule, the dissolved amount per volume that the medium holds) at 3 h in data set [1] (aqueous buffer, thermodynamic from solid, apparent solubility, 37° C., shaken 3 h) was 4 µg/mL (≈ 4.68 µM). Besides, the Dissolution % stood at 13.1% in data set [2] (15 min); 14.5% in data set [2] (30 min); 14.6% in data set [2] (45 min); 14.8% in data set [2] (60 min); 14.1% in data set [2] (120 min). Further, in data set [3], the oral bioavailability entry was “about 2%”. The solubility in water entry in data set [4] was “lower than 10 μg/ml”. In data set [5], the pKa – broadly, the negative logarithm of the acid dissociation constant – is 11.99.
